As a reminder, the IC50 is the point on the concentration scale where inhibition reaches its midpoint.

The subject of assay [1] is Ramos cells. Kind of assay: Internalization efficacy by flow cytometry, Ramos cells. It counts as cell-based. As to conditions: 10 μg/mL, 37° C. 2 h, FIG. 2C. As to the method:
(§1) Experiment 1: Method for Internalization Efficacy of Antibody-Drug Conjugate (TRS005) by Flow Cytometry
(§2) Cell preparation: take logarithmic growth phase Raji cells or Ramos cells, centrifuge at 1000 rpm for 5 minutes, resuspend using DPBS, adjust the density of live cells to 2×10^6 cells/mL, and divide into 1.5 mL centrifuge tubes, 1 mL/tube.
(§3) Sample dilution: The sample to be tested (TRS005 with a DAR of approximately 4.2) was diluted to 1000 μg/mL, 10 μL was added to each 1 mL of cell suspension, and blown and mixed to make the final concentration of the sample 10 μg/mL.
(§4) Incubation the cell suspension to which the samples were added was placed on ice and ice-bath for 30 minutes. […]
(§5) Cells from the negative control group treated with ice bath were gating and the average fluorescence intensity of cells in each tube at FL1 was recorded. […]
(§6) The percentage of endocytosis of the samples was calculated based on the average fluorescence intensity according to the following formula.
(§7) Internalization efficacy ratio %=(mean fluorescence intensity of negative control group−mean fluorescence intensity of experimental group)/mean fluorescence intensity of negative control group×100%.
Background: A flow cytometer gives signals particle by particle.

A further assay relates to Raji cells. As to the kind of experiment: Internalization efficacy by flow cytometry, Raji cells. As to conditions: 10 μg/mL, 37° C. 2 h, FIG. 2D. The assay is classed as cell-based. The procedure:
as §1, §2, §3, §4, §5, §6, §7

Assay [2] deals with Ramos cells. Kind of assay: In vitro cytotoxicity assay (CCK-8). The assay is classed as cell-based. Particulars: about 72 hours incubation, parallel detections 1 and 2. From the text: Experiment 2: In vitro Cytotoxicity Assay
FBS, purchased from Lonsera, product number S711-001S;
Streptomycin/Penicillin Dual Antibody, purchased from HyClone, Lot: SV30010;
DPBS (Dulbecco's Phosphate Buffer Solution) was purchased from Gibco, product number 14190-136;
CCK-8 reagent, purchased from Biolite, product number 35004.
Ramos cells were purchased from COBIOER BIOSCIENCES CO., LTD.
Cell culture and plating: Ramos cells with viability greater than 80% in the logarithmic growth phase up to 30 generations were selected for the experiment. Ramos cells were removed from culture flasks and added to 50 mL centrifuge tubes and blown to mix. 1000 rpm (≈188g) centrifugation was performed for 5-6 minutes. The supernatant was discarded and the cells were resuspended with the appropriate volume of diluent. […]
Plate reading: Load the plate into the enzyme labeling instrument and read the plate with 450 nm as the reading wavelength and 650 nm as the reference wavelength.
Data processing: The IC50 value was calculated using a four-parameter fitting model with the concentration value as the horizontal coordinate and the difference between the absorbance value at 450 nm minus the absorbance value at 650 nm as the vertical coordinate.

For assay [3], the system named is Daudi cell xenografts tumor. As to the kind of experiment: In vivo anti-tumor activity test, Daudi graft tumor. More on the design: species or system BALB/c nude mice. As to conditions: tail vein, 6 injections over 21 days, two batches (first and second), listed as TRS005. From the text: Experiment 3 In vivo Anti-Tumor Activity Test
1. Test animals and housing environment
Species: BALB/c nude mice
Gender of animals: male mice.
Age at acquisition: 6-8 weeks; Body weight at the beginning of the experiment: 18˜20 g.
Housing environment: SPF grade.
Daudi cells were purchased from the cell bank of the Type Culture Collection of the Chinese Academy of Sciences.
3. TEST SAMPLE: The Test Sample was Selected From Two Batches of the Product Prepared in Example 2.
Under aseptic conditions of 5% CO2 and 37° C., Daudi cells were cultured with PRMI1640 medium containing 10% fetal bovine serum, respectively, and expanded to 5.0×10^8 cells. Cells were collected by centrifugation and mixed 1:1 with Matrix gel and inoculated subcutaneously into the right side of the rib cage of BALB/c nude mice at 1×10^7 cells/200 μl/animal.
When the mean tumor volume reached 100 mm3, the group was randomized: […]
There were 10 nude mice in each group. Then the administration of the drug was started by tail vein administration, and the body weight of BALB/c nude mice and the long and short diameters of the tumors were measured, and recorded during the administration. […]
Tumor volume and Tumor weight were expressed as Mean±Standard Error of the Mean (Mean±SEM). Statistical tests were analyzed by one-way analysis of variance (ANOVA), with p<0.05 considered significant and p<0.01 considered highly significant.

“And” between values parts separate entries of the source, which are not always exact repeats. Equal values may be shown once.

With “Example 2: Anti-CD20 antibody TRS001 (rituximab biosimilar) conjugated to MMAE via maleimidocaproyl-valine-citrulline-p-aminobenzyloxycarbonyl linker; preferred DAR distribution”, the internalization efficacy result in the assay on Ramos cells [1] and in the assay with Raji cells was “good internalization efficacy” throughout. The half-maximal inhibitory concentration (IC50) in the assay with Ramos cells [2] was 0.0589 µg/mL and 0.0648 µg/mL. The tumor inhibition rate in assay [3] (0.75 mg/kg) is 91.08% and 92.09%; in assay [3] (1.5 mg/kg) it was 97.15% and 97.71%.

Values taken from patent US20250269049A1, “CD20-TARGETED ANTIBODY COUPLING PHARMACEUTICAL PREPARATION” (priority 2017, published 2025).
